# The source made the active and inactive calls. The calls are words filed in the database; no cut-off is given here.
# Key:
# Escherichia coli [1] = experiment: Induction of drug resistance in Escherichia coli ATCC25922 assessed as fold increase in MIC at sub-inhibitory concentration incubated for 21 to 22 passages; assay type: functional
# Candida albicans [2] = experiment: Antimicrobial activity against Candida albicans ATCC10231 assessed as fungal growth inhibition incubated for 48 hrs by Sabouraud Dextrose broth based dilution assay; assay type: functional
# Candida albicans [3] = experiment: Antimicrobial activity against Candida albicans CMCC98001 assessed as fungal growth inhibition incubated for 48 hrs by Sabouraud Dextrose broth based dilution assay; assay type: functional
# Staphylococcus aureus [4] = experiment: Antimicrobial activity against Staphylococcus aureus ATCC29213 assessed as bacterial growth inhibition incubated for 24 hrs by Muller Hinton broth based dilution assay; assay type: functional
# Staphylococcus aureus [5] = experiment: Antimicrobial activity against methicillin-resistant Staphylococcus aureus N315 assessed as bacterial growth inhibition incubated for 24 hrs by Muller Hinton broth based dilution assay; assay type: functional
# Staphylococcus aureus [6] = experiment: Antimicrobial activity against methicillin-resistant Staphylococcus aureus NCTC10442 assessed as bacterial growth inhibition incubated for 24 hrs by Muller Hinton broth based dilution assay; assay type: functional
# Escherichia coli [7] = experiment: Antimicrobial activity against Escherichia coli ATCC25922 assessed as bacterial growth inhibition incubated for 24 hrs by Muller Hinton broth based dilution assay; assay type: functional
# [8] = Hemolytic activity in rabbit RBC incubated for 1 hr by absorbance based microplate reader assay; assay type: toxicity, cell-based, Oryctolagus cuniculus, Erythrocyte; settings: rabbit red blood cells (erythrocytes)
# Pseudomonas aeruginosa [9] = experiment: Antimicrobial activity against Pseudomonas aeruginosa ATCC9027 assessed as bacterial growth inhibition incubated for 24 hrs by Muller Hinton broth based dilution assay; assay type: functional
# Acinetobacter baumannii [10] = experiment: Antimicrobial activity against Acinetobacter baumannii ATCC17978 assessed as bacterial growth inhibition incubated for 24 hrs by Muller Hinton broth based dilution assay; assay type: functional
# Acinetobacter baumannii [11] = experiment: Antimicrobial activity against Acinetobacter baumannii R2889 assessed as bacterial growth inhibition incubated for 24 hrs by Muller Hinton broth based dilution assay; assay type: functional
# Klebsiella pneumoniae [12] = experiment: Antimicrobial activity against Klebsiella pneumoniae ATCC10031 assessed as bacterial growth inhibition incubated for 24 hrs by Muller Hinton broth based dilution assay; assay type: functional
# Klebsiella pneumoniae [13] = experiment: Antimicrobial activity against Klebsiella pneumoniae ATCC14581 assessed as bacterial growth inhibition incubated for 24 hrs by Muller Hinton broth based dilution assay; assay type: functional
# Cell membrane = experiment: Disruption of outer membrane integrity in Acinetobacter baumannii ATCC17978 at 25 ug/mL; settings: dose 25.0 µg/ml
# Pseudomonas aeruginosa [14] = experiment: In vivo antibacterial activity against Pseudomonas aeruginosa ATCC9027 infected in keratitis C57BL/6 mouse model assessed as log reduction in bacterial load at 0.3 % administered topically 4 times per day for 3 days; assay type: functional; settings: time 3 day
# Staphylococcus aureus [15] = experiment: Induction of drug resistance in Staphylococcus aureus ATCC29213 assessed as fold increase in MIC at sub-inhibitory concentration incubated for 21 to 22 passages; assay type: functional
# Staphylococcus aureus [16] = experiment: Antibiofilm activity against Staphylococcus aureus ATCC29213 assessed as inhibition of biofilm formation at 0.39 ug/mL incubated for 24 hrs by crystal violet staining based analysis relative to control; assay type: functional
# Staphylococcus aureus [17] = experiment: Antibiofilm activity against Staphylococcus aureus ATCC29213 assessed as inhibition of biofilm formation at 0.78 ug/mL incubated for 24 hrs by crystal violet staining based analysis relative to control; assay type: functional
# Staphylococcus aureus [18] = experiment: Antibiofilm activity against Staphylococcus aureus ATCC29213 assessed as inhibition of biofilm formation at 6.25 ug/mL incubated for 24 hrs by crystal violet staining based analysis relative to control; assay type: functional
# Staphylococcus aureus [19] = experiment: Disruption of preformed biofilm in Staphylococcus aureus ATCC29213 assessed as residual preformed biofilm at 0.39 ug/mL incubated for 24 hrs by crystal violet staining based analysis relative to control; assay type: functional; settings: dose 0.39 µg/ml
# Staphylococcus aureus [20] = experiment: Disruption of preformed biofilm in Staphylococcus aureus ATCC29213 assessed as residual preformed biofilm at 0.78 ug/mL incubated for 24 hrs by crystal violet staining based analysis relative to control; assay type: functional; settings: dose 0.78 µg/ml
# Staphylococcus aureus [21] = experiment: Disruption of preformed biofilm in Staphylococcus aureus ATCC29213 assessed as residual preformed biofilm at 3.125 ug/mL incubated for 24 hrs by crystal violet staining based analysis relative to control; assay type: functional; settings: dose 3.125 µg/ml
# Staphylococcus aureus [22] = experiment: Disruption of preformed biofilm in Staphylococcus aureus ATCC29213 assessed as residual preformed biofilm at 6.25 ug/mL incubated for 24 hrs by crystal violet staining based analysis relative to control; assay type: functional; settings: dose 6.25 µg/ml
# Staphylococcus aureus [23] = experiment: Disruption of preformed biofilm in Staphylococcus aureus ATCC29213 assessed as residual preformed biofilm at 12.5 ug/mL incubated for 24 hrs by crystal violet staining based analysis relative to control; assay type: functional; settings: dose 12.5 µg/ml
structure (smiles),measurement,setting,value
CC1(C)S[C@@H]2[C@H](NC(=O)[C@H](N)c3ccc(O)cc3)C(=O)N2[C@H]1C(=O)O,fold change (FC),Escherichia coli [1],16
CCCCCCCN1CCCc2cc(OCCCCCCCCNC(=N)N)ccc21,MIC,Candida albicans [2],0.78 µg/mL
same,MIC,Candida albicans [3],0.39 µg/mL
same,MIC,Staphylococcus aureus [4],1.56 µg/mL
same,MIC,Staphylococcus aureus [5],0.78 µg/mL
same,MIC,Staphylococcus aureus [6],0.78 µg/mL
same,MIC,Escherichia coli [7],3.12 µg/mL
same,HC50 at 1 h,[8],> 200 µg/mL
same,MIC,Pseudomonas aeruginosa [9],> 50 µg/mL
same,MIC,Acinetobacter baumannii [10],25 µg/mL
same,MIC,Acinetobacter baumannii [11],12.5 µg/mL
same,MIC,Klebsiella pneumoniae [12],12.5 µg/mL
same,MIC,Klebsiella pneumoniae [13],12.5 µg/mL
same,Activity,Cell membrane,inactive
COc1c(N2CCNC(C)C2)c(F)cc2c(=O)c(C(=O)O)cn(C3CC3)c12 (stereo not drawn) [GATIFLOXACIN],log(activity),Pseudomonas aeruginosa [14],3.7
CCn1cc(C(=O)O)c(=O)c2cc(F)c(N3CCNCC3)cc21,fold change (FC),Staphylococcus aureus [15],1024
CN[C@H](CC(C)C)C(=O)N[C@H]1C(=O)N[C@@H](CC(N)=O)C(=O)N[C@H]2C(=O)N[C@H]3C(=O)N[C@H](C(=O)N[C@H](C(=O)O)c4cc(O)cc(O)c4-c4cc3ccc4O)[C@H](O)c3ccc(c(Cl)c3)Oc3cc2cc(c3O[C@@H]2O[C@H](CO)[C@@H](O)[C@H](O)[C@H]2O[C@H]2C[C@](C)(N)[C@H](O)[C@H](C)O2)Oc2ccc(cc2Cl)[C@H]1O [VANCOMYCIN],MIC,Staphylococcus aureus [4],0.78 µg/mL
same,MIC,Staphylococcus aureus [5],1.56 µg/mL
same,MIC,Staphylococcus aureus [6],1.56 µg/mL
same,MIC,Escherichia coli [7],> 50 µg/mL
same,inhibition at 0.39 µg/mL,Staphylococcus aureus [16],3.73%
same,inhibition at 0.78 µg/mL,Staphylococcus aureus [17],30.3%
same,inhibition at 6.25 µg/mL,Staphylococcus aureus [18],99.6%
same,Activity,Staphylococcus aureus [19],98.16%
same,Activity,Staphylococcus aureus [20],91.12%
same,Activity,Staphylococcus aureus [21],49.44%
same,Activity,Staphylococcus aureus [22],10.69%
same,Activity,Staphylococcus aureus [23],-0.81%

# Reference: ChEMBL document CHEMBL5352419, “Design, synthesis, and biological evaluation of tetrahydroquinoline amphiphiles as membrane-targeting antimicrobials against pathogenic bacteria and fungi” (Eur J Med Chem, 2022)
